Source: ChEMBL document CHEMBL1128891, “Synthesis of indane derivatives as mechanism-based inhibitors of dopamine -hydroxylase” (Bioorg Med Chem Lett, 1995)

Columns and labels:
[1] = biological target: T1, Dopamine beta-hydroxylase (Bos taurus) (UniProt P15101); assay: Kinetic constant for inactivation (k inact) of Dopamine beta-Hydroxylase (DBH) from bovine adrenal medulla; type: tissue-based
T1 sequence (whole entry): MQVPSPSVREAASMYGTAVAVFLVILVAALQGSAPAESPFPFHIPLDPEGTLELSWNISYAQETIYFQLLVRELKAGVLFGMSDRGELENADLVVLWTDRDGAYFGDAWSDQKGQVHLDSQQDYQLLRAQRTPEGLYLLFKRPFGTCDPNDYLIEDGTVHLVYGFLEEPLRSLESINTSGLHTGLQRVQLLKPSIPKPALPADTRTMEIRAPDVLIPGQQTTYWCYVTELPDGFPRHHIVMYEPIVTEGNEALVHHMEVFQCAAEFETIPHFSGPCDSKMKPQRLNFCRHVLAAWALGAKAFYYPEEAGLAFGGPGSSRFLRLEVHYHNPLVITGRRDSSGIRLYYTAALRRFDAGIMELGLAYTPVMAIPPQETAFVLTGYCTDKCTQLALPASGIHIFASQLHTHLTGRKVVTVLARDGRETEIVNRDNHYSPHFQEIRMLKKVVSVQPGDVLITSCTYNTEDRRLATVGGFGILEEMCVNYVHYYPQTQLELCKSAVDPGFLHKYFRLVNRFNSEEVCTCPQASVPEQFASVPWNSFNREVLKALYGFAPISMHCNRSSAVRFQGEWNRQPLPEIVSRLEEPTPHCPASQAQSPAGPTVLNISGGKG

[2] = biological target: T2, Dopamine beta-hydroxylase (Bos taurus, UniProt P15101); assay: Kinetic constant for inhibition (KI) of Dopamine beta-Hydroxylase (DBH) from bovine adrenal medulla; type: tissue-based
T2 sequence (P15101 whole entry): T1 sequence (whole entry)

[3] = Ratio of kinetic constant k inact to KI was determined

c1ccc2c(c1)CC1OC21 (configuration not stated)
K inact [1]: 0.08 min⁻¹ | Ki [2]: 1060 µM | Ratio [3]: 70 M⁻¹ min⁻¹

Oc1cc2c(cc1O)C1CC1C2 (configuration not stated)
K inact [1]: 0.129 min⁻¹ | Ki [2]: 109 µM | Ratio [3]: 1180 M⁻¹ min⁻¹

c1ccc2c(c1)CC1CC21 (configuration not stated)
K inact [1]: 0.2 min⁻¹ | Ki [2]: 3030 µM | Ratio [3]: 70 M⁻¹ min⁻¹

COc1ccc(CC2CC2)cc1
K inact [1]: 0.018 min⁻¹ | Ki [2]: 240 µM | Ratio [3]: 75 M⁻¹ min⁻¹

COc1ccc2c(c1)C1OC1C2 (configuration not stated)
K inact [1]: 0.07 min⁻¹ | Ki [2]: 650 µM | Ratio [3]: 110 M⁻¹ min⁻¹

COc1ccc2c(c1)C1CC1C2 (configuration not stated)
K inact [1]: 0.11 min⁻¹ | Ki [2]: 1120 µM | Ratio [3]: 100 M⁻¹ min⁻¹

c1c2c(cc3c1OCO3)C1OC1C2 (configuration not stated)
K inact [1]: 0.06 min⁻¹ | Ki [2]: 1010 µM | Ratio [3]: 60 M⁻¹ min⁻¹

Oc1ccc(CC2CC2)cc1
Ki [2]: 12000 µM | Ratio [3]: 150 M⁻¹ min⁻¹

c1c2c(cc3c1OCO3)C1CC1C2 (configuration not stated)
K inact [1]: 0.06 min⁻¹ | Ki [2]: 160 µM | Ratio [3]: 370 M⁻¹ min⁻¹

Oc1ccc2c(c1)C1CC1C2 (configuration not stated)
K inact [1]: 0.23 min⁻¹ | Ki [2]: 150 µM | Ratio [3]: 1530 M⁻¹ min⁻¹

COc1ccc2c(c1)C1NC1C2 (configuration not stated)
K inact [1]: 0.03 min⁻¹ | Ki [2]: 400 µM | Ratio [3]: 70 M⁻¹ min⁻¹
